{
  "source": "paper PMC5267519",
  "about": "“Evaluation of a Novel Renewable Hepatic Cell Model for Prediction of Clinical CYP3A4 Induction Using a Correlation-Based Relative Induction Score Approach” (Drug Metabolism and Disposition, 2017)",
  "key": {"[1]": {"tested_on": "CYP3A4", "details": "cited from earlier work"}, "[2]": {"tested_on": "CYP3A4", "parameters": "method as in Luo et al. (2002)", "details": "probenecid concentration up to 20 μM; ref Luo et al. (2002); cited from earlier work"}, "[3]": {"parameters": "method as in Zhang et al., 2014", "details": "from the literature; ref Zhang et al., 2014; cited from earlier work"}, "[4]": {"tested_on": "CYP3A4", "details": "for RIS Based on Enzyme Activity: RIS = (Emax × Cmax,ub)/(EC50 + Cmax,ub)"}, "[5]": {"tested_on": "PXR", "parameters": "method as in Luo et al. (2002)", "details": "probenecid concentration up to 50 μM; ref Luo et al. (2002); cited from earlier work"}, "[6]": {"tested_on": "CYP3A4", "description": "The resulting fitting equation was used to calculate predicted in vivo AUC change for each compound. […] Prediction accuracy using HepatoCells was also compared with prediction accuracy using primary human hepatocytes."}, "[7]": {"tested_on": "CYP3A4 mRNA", "assay": "Concentration-dependent CYP3A4 mRNA induction in HepatoCells", "details": "for induction response: readout not specified; for Emax / EC50: CYP3A4 mRNA fold increase, NI = no induction observed at tested concentration; for Emax: 3 consecutive days treatment, quinidine: only observed maximum fold induction; for RIS Based on mRNA: RIS = (Emax × Cmax,ub)/(EC50 + Cmax,ub); for EC50: human, nominal concentrations", "method": "(§1) Cryopreserved HepatoCells were thawed quickly in a 37°C water bath and transferred to Corning Culture Medium for HepatoCells supplemented with 10% fetal bovine serum and Pen/Strep (plating medium). After the cryo-freezing media was removed by centrifugation at 150g for 10 minutes, the cell pellet was resuspended in plating media and cell count was performed with trypan blue. Cells were then seeded in a Corning BioCoat Collagen I–coated plate (500,000 cells/well in 24-well plate or 80,000 cells/well in 96-well plate), and plates were incubated in a 37°C incubator with 5% CO2. […] Cells were then returned to the incubator for overnight culture.\n(§2) Stock solutions of test compounds were prepared by dissolving each compound in DMSO and serially diluting the solutions in DMSO. Final working solutions were freshly prepared daily by diluting the 1000× stock solutions in culture medium. Three lots of HepatoCells culture were treated with eight concentrations of test compounds. Both enzymatic activity (testosterone 6β hydroxylase activity) and mRNA expression were measured as endpoints using LC-MS/MS and real-time reverse-transcription polymerase chain reaction, respectively.\n(§3) Only curve fitting with correlation coefficient (R^2) > 0.85 is accepted. At high concentrations for some compounds, if toxicity or insolubility becomes obvious, such data are excluded from curve fitting."}, "[8]": {"tested_on": "CYP2B6", "assay": "CYP2B6 induction response to prototypical inducer, enzyme activity, HepatoCells", "details": "human, probe bupropion 250 µM", "method": "as §1"}, "[9]": {"target": "T1, human CAR (Homo sapiens, UniProt Q14994)", "T1 construct": "expressed in transfected cells; host or cells: primary human hepatocytes (Corning Gentest inventory), adenoviral transduction", "T1 sequence (Q14994 1-352)": "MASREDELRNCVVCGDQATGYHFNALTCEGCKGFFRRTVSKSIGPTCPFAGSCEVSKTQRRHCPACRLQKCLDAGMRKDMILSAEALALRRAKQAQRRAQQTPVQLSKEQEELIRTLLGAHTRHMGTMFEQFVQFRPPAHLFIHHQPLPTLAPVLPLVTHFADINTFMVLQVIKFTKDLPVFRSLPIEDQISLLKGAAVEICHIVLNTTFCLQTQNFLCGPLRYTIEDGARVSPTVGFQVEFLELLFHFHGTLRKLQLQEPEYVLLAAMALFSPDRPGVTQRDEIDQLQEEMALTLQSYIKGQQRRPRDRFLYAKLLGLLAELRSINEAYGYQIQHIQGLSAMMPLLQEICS", "assay": "Ad-EYFP-hCAR nuclear translocation in HepatoCells", "assay_type": "cell-based", "details": "1 mM phenobarbital for 12 hours", "protocol": "Previous studies have used adenoviral-enhanced yellow fluorescent protein-tagged-human CAR (Ad-EYFP-hCAR) as a tool to visualize nuclear translocation of hCAR from cytoplasm in primary human hepatocytes upon exposure to phenobarbital ([Li et al., 2009]). […] The same Ad-EYFP-hCAR fusion protein model system was used to study CAR nuclear translocation in HepatoCells. A 3-day culture of HepatoCells was transduced with Ad-EYFP-hCAR for 24 hours. Infected HepatoCells were then treated with 1 mM phenobarbital for 12 hours."}, "[10]": {"target": "T1, human CAR", "assay": "Ad-EYFP-hCAR nuclear translocation in primary human hepatocytes", "assay_type": "cell-based", "details": "phenobarbital treatment"}, "[11]": {"tested_on": "CYP3A4 mRNA", "details": "human", "method": "as §1, §2, §3"}, "[12]": {"tested_on": "CYP3A4 mRNA", "assay": "in vitro", "details": "human", "method": "as §1, §2, §3"}, "[13]": {"tested_on": "CYP2B6", "assay": "CYP2B6 induction response to prototypical inducer, enzyme activity, primary human hepatocytes", "details": "cryopreserved primary human hepatocytes, probe bupropion 250 µM"}, "[14]": {"details": "Lot 2B HepatoCells, RIS calibration curve"}, "[15]": {"details": "Lot 3A HepatoCells, RIS calibration curve"}, "[16]": {"details": "Lot 3B HepatoCells, RIS calibration curve"}},
  "note": "“And” between values parts separate entries of the source, which are not always exact repeats. Equal entries are not always repeated. Where two headings read alike, the source gives them in different places.",
  "data": [
    {"smiles": "CCCN(CCC)S(=O)(=O)c1ccc(C(=O)O)cc1", "note": "[Probenecid]", "values": [
      {"measurement": "Observed % AUC Change", "setting": "[1]; clinical DDI, decrease in AUC of victim drug (midazolam or nonmidazolam), ref Zhang et al., 2014", "value": 20, "unit": "%"},
      {"measurement": "induction of CYP3A4 transcript or enzyme activity", "setting": "[2]", "value": "no activation of PXR or induction of CYP3A4 transcript or enzyme activity"},
      {"measurement": "unbound Cmax", "setting": "[3]", "value": 28, "unit": "µM"},
      {"measurement": "Emax, enzyme activity (all lots)", "setting": "[4]; HepatoCells", "value": "5.9- to 11.9 fold"},
      {"measurement": "RIS Based on Enzyme Activity", "setting": "[4]; Lot 2B", "value": 1.5},
      {"measurement": "RIS Based on Enzyme Activity", "setting": "[4]; Lot 3A", "value": 1.0},
      {"measurement": "RIS Based on Enzyme Activity", "setting": "[4]; Lot 3B", "value": 0.8},
      {"measurement": "RIS Based on Enzyme Activity, Mean", "setting": "[4]; mean of lots 2B, 3A, 3B", "value": 1.1},
      {"measurement": "activation of PXR", "setting": "[5]", "value": "no activation of PXR"},
      {"measurement": "Predicted % AUC Change Based on Activity", "setting": "[6]; [14]", "value": 96, "unit": "%"},
      {"measurement": "Predicted % AUC Change Based on mRNA", "setting": "[6]; [14]", "value": 98, "unit": "%"},
      {"measurement": "Predicted % AUC Change Based on Activity", "setting": "[6]; [15]", "value": 94, "unit": "%"},
      {"measurement": "Predicted % AUC Change Based on mRNA", "setting": "[6]; [15]", "value": 98, "unit": "%"},
      {"measurement": "Predicted % AUC Change Based on Activity", "setting": "[6]; [16]", "value": 83, "unit": "%"},
      {"measurement": "Predicted % AUC Change Based on mRNA", "setting": "[6]; [16]", "value": 95, "unit": "%"},
      {"measurement": "Emax, mRNA expression (all lots)", "setting": "[7]; HepatoCells", "value": "more than 20 fold"},
      {"measurement": "induction response", "setting": "[7]; HepatoCells, probenecid at 0.1–11 μM, significant = >twofold", "value": "did not exhibit significant induction response"},
      {"measurement": "induction response", "setting": "[7]; HepatoCells, probenecid concentration higher than 33 μM", "value": "strong induction"},
      {"measurement": "Emax", "setting": "[7]; Lot 2B HepatoCells", "value": 25, "unit": "Fold"},
      {"measurement": "RIS Based on mRNA", "setting": "[7]; Lot 2B", "value": 2.8},
      {"measurement": "Emax", "setting": "[7]; Lot 3A HepatoCells", "value": 26, "unit": "Fold"},
      {"measurement": "RIS Based on mRNA", "setting": "[7]; Lot 3A", "value": 3.2},
      {"measurement": "Emax", "setting": "[7]; Lot 3B HepatoCells", "value": 22, "unit": "Fold"},
      {"measurement": "RIS Based on mRNA", "setting": "[7]; Lot 3B", "value": 2.4},
      {"measurement": "EC50", "setting": "[7]; EC50, Lot 2B HepatoCells", "value": 187, "unit": "µM"},
      {"measurement": "EC50", "setting": "[7]; EC50, Lot 3A HepatoCells", "value": 176, "unit": "µM"},
      {"measurement": "EC50", "setting": "[7]; EC50, Lot 3B HepatoCells", "value": 195, "unit": "µM"},
      {"measurement": "RIS Based on mRNA, Mean", "setting": "[7]; mean of lots 2B, 3A, 3B", "value": 2.8}
    ]},
    {"smiles": "CCC1(c2ccccc2)C(=O)NC(=O)NC1=O", "note": "[Phenobarbital]", "values": [
      {"measurement": "fold induction at 72 h, 1 mM", "setting": "[8]", "value": 5},
      {"measurement": "Observed % AUC Change", "setting": "[1]; human, in vivo", "value": 61, "unit": "%"},
      {"measurement": "EYFP-hCAR localisation after treatment", "setting": "[9]", "value": "relocates to the cell nuclei"},
      {"measurement": "EYFP-hCAR localisation after treatment", "setting": "[10]", "value": "relocates to the cell nuclei"},
      {"measurement": "RIS Based on mRNA, Mean", "setting": "[11]", "value": 4.3},
      {"measurement": "RIS Based on Enzyme Activity, Mean", "setting": "[4]; human", "value": 3.7},
      {"measurement": "EC50", "setting": "[12]", "value": 775, "unit": "µM"},
      {"measurement": "Predicted % AUC Change Based on Activity", "setting": "[6]", "value": "96% and 98%"},
      {"measurement": "Predicted % AUC Change Based on mRNA", "setting": "[6]", "value": "98% and 95%"},
      {"measurement": "Predicted AUC change using HepatoCells (range of lots)", "setting": "[6]", "value": "95–98%"},
      {"measurement": "fold induction at 72 h, 1 mM", "setting": "[13]", "value": 7.8}
    ]}
  ]
}
